Like-named read-outs stand apart in the source and are kept apart here.
Assays:
[1] = test system: pgCAR; test: Dual luciferase reporter assay in HepG2 cells transiently transfected with pgCAR; type: cell-based, pig; settings: for reporter gene expression (fold-change relative to DMSO vehicle): pgCAR, CYP2B6 response element firefly luciferase, hormones at 10 μM
Description: Dual Luciferase Reporter Assay: Pig, human ? mouse ? receptors were tested in a transient transfection assay against a panel of hormones and xenobiotics. Hormones and TCPOBOP were tested at 10 μM with the exception of CITCO at 1 μM. The effects of ligands are expressed as fold-change relative to vehicle (dimethylsulfoxide 1:2000) control for each receptor.
The dual luciferase reporter assay (Promega) was used as a screening tool to identify ligands (hormone and xenobiotic compounds) that regulate the nuclear receptor CAR. The dual luciferase assay consists of 3 plasmids. A pgCAR or hCAR or mCAR expression plasmid containing the full length wild type isoform is used together with a reporter construct, consisting of the CAR response gene promoter element from CYP2B6 regulating the expression of the firefly luciferase gene. […] The Promega Dual-Luciferase Reporter Assay System (Cat#E11960) was used to determine the hormones and xenobiotics that modulate the CAR responsive genes by measuring the amount light produced by the firefly luciferase gene construct.
The dual luciferase assay method uses HepG2 cells (that express RXR) plated at 50% confluence onto 96 well cell culture plates. The cells are transiently transfected after 1 day with pgCAR expression plasmid, reporter plasmid (containing the CAR response element) and the internal control plasmid, which are pooled treatments to ensure all samples receive the same amount of plasmids. On day two, control or ligand supplemented media are added to cells (ligands from FIG. 4 at 10 ug/ml in DMSO) for a total of n=15 for each ligand. On day four, the media is removed and cells are washed with PBS to remove detached cells and remaining media. The cell monolayer is then treated with Passive lysis buffer and the cell lysate is then transferred to a test tube for analysis. Luminometer readings are made on a Berthold Detection systems Sirius single tube luminometer with dual injectors. The test tube is loaded into the measurement chamber and the LARII luciferase reagent is injected into the cell lysate and a 10 second firefly luciferase relative light unit (RLU) measurement is recorded. The Stop & Glo reagent is then injected into the same tube and the Renella luciferase RLU is measured. The ratio of reporter to control luminescence is used to normalize transfection efficiencies between plates; the normalized values are then statistically analyzed by t-tests to determine how efficiently CAR activates the firefly luciferase reporter gene in response to ligand treatment.

[2] = test system: SULT2A1; settings: boar hepatocytes, ligand 8 or 10 hours, vs DMSO
Description: (§5) Boar hepatocytes treated with ligands for 8-10 hrs prior to RNA isolation and real time PCR analysis. B-actin was used as the housekeeping gene and DMSO (no hormone treatment) was used as the calibrator. For CYP2A6, CYP2E1, SULT1A1 and UGT2B the primer inefficiencies should not affect the resultant fold changes in this experiment since all hepatocyte treatments come from a single boar and analysis is compared to the no hormone DMSO control. This analysis should be valid since the calibrator is from the same pool of cells.
(§6) Primary boar hepatocytes were treated with seven different CAR ligands identified in objective 2 and 5, with DMSO used as the vehicle control. Primary cells were plated on 60 mm dishes and treated with ligand. The treatments were incubated for 8 or 10 hours and the RNA was extracted from cells in each treatment. Real Time PCR primers were designed for seven genes of interest CYP2A6, CYP2E1, 3β-HSD, 3α-HSD, SULT2A1, SULT1A1, UGT2B, CYP2B6 and pgCAR, with B-actin used as the housekeeping gene for ΔΔCT analysis.

[3] = test system: 3β-HSD; settings: boar hepatocytes, ligand 8 or 10 hours, vs DMSO
Description: as §5, §6

[4] = test system: UGT2B; settings: boar hepatocytes, ligand 8 or 10 hours, vs DMSO
Description: as §5, §6

[5] = test system: pgCAR; test: Dual luciferase reporter assay in primary boar hepatocytes transfected with pgCAR; type: cell-based, pig; settings: primary boar hepatocytes with exogenous pgCAR expression plasmid
Description: FIG. 11. Dose response analysis of CITCO ligand treatment in primary boar hepatocytes. Unlike HepG2 cells, primary hepatocytes have very low basal luciferase expression allowing for the detection of significant fold changes above no hormone control at lower doses.
FIG. 12. Dose response analysis of Phenytoin ligand treatment in primary boar hepatocytes.
FIG. 13. Dual luciferase assay of selected ligand in boar hepatocytes. Selected activators and repressors of pgCAR in HepG2 cells were tested in boar hepatocytes. […] Only reporter gene activations and not repressions are detectable in this cell model.
Transfection experiments using the HepG2 cell line identified compounds that were able to alter pgCAR gene regulation. Experiments performed on primary mouse and human hepatocytes indicate that gene regulation has additional levels of complexity, and CAR is not constitutively active in vivo. This experiment uses a similar methodology as objective 2 except primary boar hepatocytes were used as the cell line. Hepatocytes were transfected with a reporter construct containing the CAR responsive element, an internal control Renilla luciferase construct, and pgCAR or an empty vector as control. Control experiments without pgCAR were conducted to determine if endogenous pgCAR in the hepatocytes could activate the reporter construct. […] The cascade of events leading to gene activation remains unclear.

[6] = test system: 3MI metabolism; test: 3MI metabolism assay: production of HMOI and 3MOI in primary pig hepatocytes after inducer treatment; type: cell-based; settings: for 3MI metabolism: CITCO 1.0 μM
Description: (§1) Each data point represents results obtained from 3 separate experiments run in triplicate.
(§2) Hepatocytes were prepared by a modification of a collagenase perfusion method described previously (Sinclair et al., 2005). Briefly, one hepatic lobe was immediately catheterized by selecting the largest vessel at the cut end. Blood was then flushed from the liver by perfusion with 25 mL/min of medium containing 10 mM hydroxyethyl piperazine ethane (HEPES), 1 mM EGTA and HBSS (pH 7.4) delivered at 37° C. The lobe was then perfused for 5 minutes with the same medium without EGTA and then with William's E Media (pH 7.4) containing 10 mM HEPES and 0.7 mg/mL collagenase type 1 for 10 to 25 minutes until the hepatocytes appeared to be fully dissociated.
(§3) All remaining experimental procedures were carried out under sterile conditions. The lobe was gently minced with a scalpel to disassociate cells in attachment medium containing 10 mM HEPES, 10% (v/v) fetal bovine serum, 1% (v/v) penicillin-streptomycin and 50 Units/L insulin in William's E media (pH 7.4), at 4° C. Cells were filtered through gauze and centrifuged at 15×g for 3 minutes. The cell pellet was washed in attachment media and cell viability was determined by trypan blue exclusion. […] Hepatocytes were then plated on Primaria™ 60 mm tissue culture dishes (VWR International Ltd., Mississauga, ON) at a density of 2.25×10^6 cells in 3.0 mL attachment media, and kept in a incubator at 37° C. supplied with 95% air and 5% CO2. After 4 hours to allow for attachment of the cells, the medium was replaced with serum-free medium that contained 10 mM HEPES, 10 mM pyruvate, 0.35 mM proline, 1% (v/v) penicillin-streptomycin and 50 Units/L insulin in William's E media (pH 7.4) with treatments. For inducer experiments, hepatocytes were treated for 19 hours prior to the determination of P450 activities and 3MI metabolism.
To measure 3MI metabolism in primary cultured hepatocytes, cells were incubated with 500 μM 3MI for 6 hours, after which an equal volume of acetonitrile was added to stop the reaction. The production of metabolites was then determined by HPLC analysis as previously described (Terner et al., in press). Formation of metabolites was determined by interpolation of standard curves made from authentic standards HMOI and 3MOI run in duplicate.

[7] = test system: SULT2A1; test: SULT2A1 activity in primary porcine Leydig cells after treatment with nuclear receptor ligands ([3H]DHEA to DHEAS conversion); type: cell-based, pig; settings: primary Leydig cells of mature Yorkshire boars, 24 hours; CITCO 1 μM, TCPOBOP 250 nM, phenobarbital 2 mM, phenytoin 50 μM, rifampicin 10 μM, PCN 10 μM, dexamethasone 0.1 μM, lithocolic acid 100 μM; vs control
Description: FIG. 1: Effect of nuclear receptor ligands on SULT2A1 activity in porcine Leydig cells. Primary porcine Leydig cells were isolated from mature Yorkshire boars and the SULT2A1 activity was determined. Leydig cells were cultured in the presence of; CITCO (1 μM), TCPOBOP (250 nM), Phenobarbital (2 mM), Phenytoin (50 μM), Rifampicin (10 μM), PCN (10 μM), Dexamethasone (0.1 μM), Cholic Acid (100 μM), and Lithocolic Acid (100 μM) for 24 hours. Treatments are grouped according to the nuclear receptor affected: constitutive androstane receptor (CAR), pregnane X receptor (PXR), glucocorticoid receptor (GR) and farnesoid X receptor (FXR). Values are presented as means±SE of 3 independent experiments with significant differences indicated (*P<0.05).
Mature Yorkshire boars of 175±6 days obtained from the Arkell Swine Research Station at the University of Guelph, Guelph, ON were used for the isolation of Leydig cells. After slaughter, the testes were immediately removed and transported to the laboratory within five minutes. Testicular tissue was sliced into pieces of 1 cm^2×2-3 mm thickness and 100 g of tissue was incubated for 20 minutes in a shaking water bath at 37° C. with 1 mg/ml collagenase (type 1A), 50 μg/ml DNase and 50 μg/ml trypsin inhibitor in 250 ml of TC 199 Media containing 1 g/L bovine serum albumin and 0.1 g/L L-glutamine. Preparations of purified Leydig cells were obtained by layering the collagenase—dispersed testicular cells onto discontinuous Percoll gradients supplemented with HBSS. The preparations were then centrifuged at 1500×g for 15 minutes at 4° C. and the cells present at the 40-60% interface were collected as outlined previously (Raeside & Renaud 1983). Cell viability was determined by trypan blue exclusion. The typical viability of Leydig cells after this procedure was greater than 90%.
To further understand the molecular mechanisms that control SULT2A1 gene transcription, various nuclear receptor ligands were evaluated for their ability to induce SULT2A1 activity in Leydig cells. Aliquots of re-suspended Leydig cells (1×10^6 cells/ml) in TC 199 Media mixture were plated in 24 well plates. The Leydig cells were then treated with various nuclear receptor ligands as outlined in the figure legends in less than 0.5% DMSO vehicle and incubated at 37° C. in 95% air and 5% CO2 for 24 hours.
After the 24 h incubation period, the media was aspirated and approximately 10,000 cpm of [^3H] […] The cells were incubated for 4 h and the media was removed and immediately extracted by Sep-Pak C18 solid-phase chromatography, as described above. Sulfotransferase activity was assayed by measuring the conversion of [^3H] […] DHEAS (conjugate) fractions by liquid scintillation counting. […]

[8] = test system: CYP2A6; test: CYP2A6 activity (coumarin 7-hydroxylase, COH assay) in primary pig hepatocytes after inducer treatment; settings: for CYP2A6 activity: isoproterenol 500 μM, CITCO 1.0 μM
Description: as §1, §2, §3
(§4) To determine the rate of p-nitrophenol (PNP) hydroxylase activity and coumarin 7-hydroxylase (COH) activity, hepatocytes were incubated with 500 μM PNP or 100 μM coumarin according to the procedures previously described (Terner et al, in press). Assays were validated to be linear with time and proportional to number of cells. Production of metabolites was determined in duplicate by interpolation of standard curves made from authentic standards p-nitrocatechol and 7-hydroxycoumarin.

[9] = test system: CYP2E1; test: CYP2E1 activity (PNP hydroxylase assay) in primary pig hepatocytes after inducer treatment; settings: isoproterenol 500 μM, hormones and rifampicin 10 μM, CITCO 1.0 μM
Description: as §1, §2, §3, §4

[10] = 3-week old male pig hepatocytes, isoproterenol 500 μM, hormones and rifampicin 10 μM, given as increase, FIG. 2 values as percent of control
[11] = 3-week old male pig hepatocytes, hormones 10 μM, given as increase, FIG. 2 values as percent of control
[12] = adult male hepatocytes, hormones and rifampicin 10 μM
[13] = 3-week old male pig hepatocytes, given as increase, FIG. 2 values as percent of control
[14] = adult male hepatocytes, isoproterenol 500 μM, estrone 10 μM, given as increase, FIG. 2 values as percent of control

SMILES: C[C@@]12C=CC[C@H]1[C@@H]1CC=C3C[C@@H](O)CC[C@]3(C)[C@H]1CC2 [5,16-androstadien-3β-ol]
- reporter gene expression (fold-change relative to DMSO vehicle) [1]: significant repressions

SMILES: C[C@]12CCC(=O)C[C@@H]1CC[C@@H]1[C@@H]2CC[C@]2(C)[C@@H](O)CC[C@@H]12 [5α-DHT, 5α dihydrotestosterone]
- SULT2A1 gene expression [2]: significantly activated
- 3β-HSD gene expression [3]: significantly activated
- UGT2B gene expression [4]: significantly activated

SMILES: C[C@]12CC[C@H](O)C[C@@H]1CC[C@@H]1[C@@H]2CC[C@]2(C)C=CC[C@@H]12 [5α-androsten-3β-ol]
- reporter gene expression (fold-change relative to DMSO vehicle) [1]: significant repressions

SMILES: Clc1ccc(-c2nc3sccn3c2C=NOCc2ccc(Cl)c(Cl)c2)cc1 [CITCO, 6-(4-chlorophenyl)imidazo[2,1-b][1,3]thiazole-5-carbaldehyde O-(3,4-dichlorobenzyl)oxime]
- activation of the luciferase reporter construct [5]: activated the reporter construct
- 3MI metabolism ([6]; 3-week old male hepatocytes): did not increase CYP2E1 or CYP2A6 activity, or affect 3MI metabolism
- 3MI metabolism ([6]; adult male hepatocytes, rifampicin 10 μM): did not increase CYP2E1 or CYP2A6 activity, or affect 3MI metabolism
- SULT2A1 activity [7]: did not affect
- dose at which CITCO significantly activates the pgCAR receptor ([1]; dose response 0.01-10.0): ≥ 0.5 µM
- reporter gene expression (fold-change relative to DMSO vehicle) [1]: significant activation

SMILES: CC(=O)[C@H]1[C@H](C#N)C[C@H]2[C@@H]3CC=C4C[C@@H](O)CC[C@]4(C)[C@H]3CC[C@@]21C [PCN, Pregnenolone 16α-carbonitrile]
- SULT2A1 activity [7]: only rifampicin resulted in a significant increase

SMILES: CO[C@H]1/C=C/O[C@@]2(C)Oc3c(C)c(O)c4c(O)c(c(/C=N/N5CCN(C)CC5)c(O)c4c3C2=O)NC(=O)/C(C)=C\C=C\[C@H](C)[C@H](O)[C@@H](C)[C@@H](O)[C@@H](C)[C@H](OC(C)=O)[C@@H]1C [Rifampicin]
- decrease in CYP2A6 activity ([8]; male, pig, hepatocytes, 19 h, 10 μM, pH 7.4): 43±7%
- production of 3MOI [6, 10]: 128±10%
- production of the 3MI metabolite HMOI [6, 10]: 151±14%

SMILES: Clc1cnc(Oc2ccc(Oc3ncc(Cl)cc3Cl)cc2)c(Cl)c1 [TCBOPOP, 1,4-bis-[2-(3,5-dichloropyridyl-oxy)]benzene; 3,3′5,5′-tetrachloro-1,4-bis(pyridyl-oxy)benzene]
- SULT2A1 activity [7]: did not affect

SMILES: C[C@@]12CCC[C@H]1[C@@H]1CC[C@H]3C[C@@H](O)CC[C@]3(C)[C@H]1CC2 [androstanol]
- CYP2A6 activity [8, 11]: did not alter
- CYP2A6 activity [8, 12]: did not alter
- production of 3MOI [6, 10]: did not affect
- production of the 3MI metabolite HMOI [6, 10]: did not affect
- CYP2E1 activity [9, 13]: did not alter
- CYP2E1 activity ([9]; adult male hepatocytes): did not alter

SMILES: C[C@]12CC[C@@H](O)C[C@@H]1CC[C@@H]1[C@@H]2CC[C@]2(C)C=CC[C@@H]12 [androstenol]
- production of 3MOI [6, 10]: did not affect
- production of the 3MI metabolite HMOI [6, 10]: did not affect

SMILES: C[C@]12CC[C@@H]3c4ccc(O)cc4CC[C@H]3[C@@H]1CCC2=O [estrone]
- HMOI production [6, 14]: 142±12%

SMILES: CC(C)NCC(O)c1ccc(O)c(O)c1 (stereo not shown) [isoproterenol]
- production of 3MOI [6, 10]: unaffected
- production of the 3MI metabolite HMOI [6, 10]: 150±13%
- 3MOI production ([6]; adult male hepatocytes, isoproterenol 500 μM, estrone 10 μM): did not alter
- HMOI production [6, 14]: 139±12%

SMILES: O=C1NC(=O)C(c2ccccc2)(c2ccccc2)N1 [phenytoin]
- activation of the luciferase reporter construct [5]: activated the reporter construct
- SULT2A1 activity [7]: significant increase

SMILES: C[C@]12CC[C@H]3[C@@H](CCC4=CC(=O)CC[C@@]43C)[C@@H]1CC[C@@H]2O [testosterone]
- CYP2A6 activity [8, 11]: did not alter
- CYP2A6 activity [8, 12]: did not alter
- production of 3MOI [6]: did not affect
- production of the 3MI metabolite HMOI [6]: did not affect
- CYP2E1 activity [9, 13]: did not alter
- CYP2E1 activity ([9]; adult male hepatocytes): did not alter

Source: patent US20090221539A1, “METHOD OF DETECTING AND REDUCING BOAR TAINT USING NUCLEAR RECEPTORS” (UNIVERSITY OF GUELPH, priority 2005, published 2009)
